The results in this text go back to PMC6261997, “Synergistic enzymatic and bioorthogonal reactions for selective prodrug activation in living systems” (Nature Communications, 2018).

SMILES strings stand for the structures.

One data set has as its system Saos-2 cells. Kind of data set: MTT cell viability / cytotoxicity assay, Saos-2 cells. The data set is classed as cell-based. The note with it: MTT assay and clonogenic assay. Here is the method:
Cells were plated in flat-bottom 96-well plates at a density of 3 × 10^3 cells per well. After 12 h of cell attachment, the cell culture medium was replaced with 100 μL of pre-warmed media containing the compounds at different concentrations. After 24–72 h of incubation, cell proliferation was assessed by the MTT assay. A fresh mixture of 10 μL of thiazolyl blue tetrazolium bromide (MTT) and 90 μL of medium were freshly added to each well. After incubation for 4 h, the medium was gently removed. The formazan crystals that formed were dissolved in 110 μL of DMSO, and the absorbance was subsequently measured with a plate reader (Perkin Elmer) at 490 nm. EC50 values were calculated using Origin software. To measure the cytotoxicity of 2, HeLa cells, HUVECs, Saos-2 cells and CCC-HEH-2 cells were incubated with 100 μL of 1–500 μM 2 for 24 h, and then, cell viability was determined. To measure the cytotoxicity of TCO-Dox or Dox, HeLa cells, HUVECs, Saos-2 cells or CCC-HEH-2 cells were incubated with 200 μL of 0.001–10 μM TCO-Dox or Dox for 72 h, and the cell viability was determined. To determine the cytotoxicity of activated Dox, HeLa cells, HUVECs, Saos-2 cells or CCC-HEH-2 cells were pre-incubated with 100 μL of 500 μM 2 for 6 h, and then, 2 was removed and 200 μL of 0.0001–10 μM TCO-Dox was added for 72 h of incubation, and cell viability was determined. […]
Prodrug activation efficacy in cells: Cells were plated on flat bottom 96-well plates at a density of 3x10^3 cells per well. After 12 h attachment, cells were incubated with 100 µL 500 µM of 2 for 6 h before removing 2 and the addition of 200 µL 0.0001-10 µM of TCO-Dox. Cells were further incubated for 72 h before measuring the viability by the MTT […]
Clonogenic assay of cells in vitro: Clonogenic assay was performed according to the standard protocol.6 2×10^5 attached cells were treated with 500 µM of 2 for 6 h in culture dishes. Cells were then detached, re-suspended in cultural medium and counted accurately. The cell suspension was diluted into the desired seeding concentration and cells were seeded in 6-well plates at a density of 200 cells per well for CCC-HEH-2 and 400 cells per well for HeLa, Saos-2 and HUVECs. After incubation for 10 days, the cultural medium was removed and cells were rinsed carefully with PBS. 2 mL of a mixture of 6.0% (vol/vol) glutaraldehyde and 0.5% (wt/vol) crystal violet was added and kept for 30 min.
The glutaraldehyde crystal violet mixture was removed carefully. The colonies were rinsed with water and dried in normal air at room temperature. The number of the colonies was counted using a stereomicroscope.
When untreated cells are plated as a single-cell suspension at low densities, they will grow to colonies. The plating efficiency (PE) is the ratio of the number of colonies to the […]
(Supplementary Equation 1)
The number of colonies that arise after treatment of cells, expressed in terms of PE, is called the surviving fraction (SF): […]
(Tetrazolium dyes change colour on reduction, which living cells bring about.)

The nature of data set [1]: Stability in human serum (UPLC-MS/MS). The data set is classed as in vitro ADME. The conditions noted are these: 10 μM in human serum. Here is the method: (Sigma, St. Louis, MO). Then, 9 µL Na125I (2.4 mCi) (Beijing Atom High Tech, Beijing, China) was added and the mixture was kept at room temperature for 1 h until the labeling ratio reached to more than 95%. For SPECT/CT imaging, a mixture of 50 mg kg-1 2 and 0.875 mg kg-1 125I labelled 2 (700 µCi) were intravenously administrated to investigate the distribution of 2/3 and 0.875 mg kg-1 125I labelled 2 (700 µCi) was administrated as a control. After anesthetization with 2% isoflurane in oxygen, SPECT and helical CT scans of the mice were performed at 2, 5, 7 and 25 h on a NanoScan SPECT/CT imaging system (Mediso, Budapest, Hungary).
UPLC-MS/MS analyses: UPLC-MS/MS metabolomic analyses were performed using a Triple Quadrupole Liquid Chromatograph Mass Spectrometer (LCMS 8050, Shimadzu) in multiple reaction-monitoring mode (MRM). Data acquisition and processing were performed using LabSolutions version 5 software. Measurements were carried out at 40°C. […]
Plasmatic stability of compound 2 and TCO-Dox: To evaluate the stability of 2 and TCO-Dox under physiologically relevant conditions, compounds were incubated in human serum and the amount of the remaining intact compound (the corresponding dephosphorylated 3 was detected as well) was determined by UPLC-MS/MS. […] After centrifugation at 1559 g for 7 min and filtration, 2 µL of the supernatant was analyzed by UPLC-MS/MS (n=5).

Turning to `Cc1nnc(-c2ccc(CC(=O)NCCCCC(NC(=O)Cc3ccc4ccccc4c3)C(=O)NC(Cc3ccc(OP(=O)(O)O)cc3)C(=O)NC(Cc3ccccc3)C(=O)O)cc2)nn1` (centres unmarked) [compound 2, NapK(Tz)YpF], the “cytotoxicity of 2 against Saos-2 cells” value in the data set on Saos-2 cells is “toxic to Saos-2 cells to some extent”. Also, the stability in serum/plasma entry in data set [1] is reported as “partially transformed to the dephosphorylated product 3 in plasma”.
